The values that follow come from paper PMC9115112, “A2B adenosine receptor antagonists rescue lymphocyte activity in adenosine-producing patient-derived cancer models” (Journal for Immunotherapy of Cancer, 2022).

One data set has as its system healthy donor PBMCs. Description: Cell viability of healthy donor PBMCs on antagonist treatment (data not shown). The format is cell-based, human. On the procedure: Supplementary methods and results
Annexin V viability analysis
Cells were washed with Annexin V binding buffer (BioLegend) then incubated with Alexa Fluor 647 – conjugated Annexin V (BioLegend) at room temperature for 15 minutes. For A2AAR and A2BAR expression profiling, cells were washed with BD Perm/Wash then incubated with BD CytoFix/CytoPerm at 4°C for 20 minutes. The cells were then washed and stained with PE-conjugated A2AAR mouse antibody (Clone 7F6-G5-A2; Santa Cruz Biotechnology, sc-32261 PE) at room temperature for 30 minutes. After washing twice to remove most A2AAR antibody possible, goat A2BAR primary antibody (Clone PA5-18422; Thermo Fisher Scientific) was incubated at 4°C overnight. The cells were subsequently washed and stained with Alexa Fluor 488-conjugated anti-goat secondary antibody (Thermo Fisher Scientific) at room temperature for 1 hour. The cells were then washed with FC buffer twice before acquiring on NovoCyte. A2AAR and A2BAR fluorescence minus one (FMO) staining were also prepared. For differential expression of ADO ectonucleotidases, day five patient-derived sarcoma spheroids were digested and stained for CD45, CD73 and CD39 using the same procedures as cell surface staining (Supplementary Table 1).
Public database bioinformatic analysis […]

The target in a further data set is T1, human A2AAR (Homo sapiens, UniProt P29274).
T1 construct: expressed in transfected cells; host or cells: HeLa
T1 sequence (P29274 whole entry): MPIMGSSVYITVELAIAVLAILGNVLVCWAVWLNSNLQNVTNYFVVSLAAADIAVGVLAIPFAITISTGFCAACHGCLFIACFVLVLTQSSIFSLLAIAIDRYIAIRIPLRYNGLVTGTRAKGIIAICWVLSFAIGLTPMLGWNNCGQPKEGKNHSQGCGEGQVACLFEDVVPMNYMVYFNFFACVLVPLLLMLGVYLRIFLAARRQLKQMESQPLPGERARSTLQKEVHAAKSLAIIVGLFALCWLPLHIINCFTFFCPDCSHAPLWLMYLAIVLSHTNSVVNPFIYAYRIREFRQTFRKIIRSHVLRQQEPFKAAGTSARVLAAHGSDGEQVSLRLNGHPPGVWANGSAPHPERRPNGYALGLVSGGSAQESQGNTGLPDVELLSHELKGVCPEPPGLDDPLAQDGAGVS
Description: Radioligand binding, human A2AAR ([3H]ZM241385, transfected HeLa cells). As to conditions: displacement of [3H]ZM241385, human HeLa cells, n=3, racemic mixtures; read-out: Ki hA2A. On the procedure:
(§1) The affinity and selectivity profiles of the ligands obtained was studied in vitro, radioligand binding assays, at the four human specific ARs subtypes, using experimental protocols previously described.[28–30] All ligands were prepared and tested as racemic mixtures. […] Non-specific binding was determined in the presence of R-PIA 10 µM for A1AR, NECA 50 µM for A2AAR, NECA 400 μΜ for A2BAR and R-PIA 100 μΜ for A3AR.
Background: In a radioligand displacement assay an active substance lowers the binding of a labelled ligand.

Another data set addresses T2, human A2BAR (Homo sapiens, UniProt P29275).
T2 construct: expressed in transfected cells; host or cells: HEK-293
T2 sequence (P29275 1-332): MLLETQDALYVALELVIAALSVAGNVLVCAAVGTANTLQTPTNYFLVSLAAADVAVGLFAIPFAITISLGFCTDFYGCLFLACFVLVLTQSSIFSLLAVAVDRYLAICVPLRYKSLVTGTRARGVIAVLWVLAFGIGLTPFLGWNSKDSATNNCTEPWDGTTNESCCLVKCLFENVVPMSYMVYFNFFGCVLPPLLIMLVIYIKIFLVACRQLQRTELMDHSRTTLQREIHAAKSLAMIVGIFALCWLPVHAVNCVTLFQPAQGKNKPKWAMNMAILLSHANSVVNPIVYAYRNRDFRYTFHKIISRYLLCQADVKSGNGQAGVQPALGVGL
Kind of data set: Radioligand binding, human A2BAR ([3H]DPCPX, transfected HEK-293 cells). As to conditions: displacement of [3H]DPCPX, human HEK-293 cells, n=3, racemic mixtures; read-out: Ki hA2B. On the procedure: as §1

Data set [1] concerns sarcoma TILs against autologous tumor cells. Kind of data set: Chromium (51Cr) release cytotoxicity assay, sarcoma TILs. The following applies: synthetic ADO, 24 hours. The format is cell-based, human. On the procedure:
Chromium (51Cr) release cytotoxicity assay
Chromium (51Cr) release assay was used to measure the autologous TILs-mediated cytotoxicity against the established patient-derived breast and […] cell lines. Briefly, breast and sarcoma tumor cells were labelled with 51Cr (PerkinElmer) as target cells and seeded on 96-well V-bottom plate (Corning) at 5 000cells/well. Effector TILs were added at the indicated Effector: Target (E:T) ratios. The supernatants were collected carefully into LUMA plates (PerkinElmer) after 24 and 48 hours of co-culture. After drying overnight, radioactivity of the plate was read with MicroBeta2 (PerkinElmer).
Relative adenosine production assay
An ectonucleotidase CD73 assay was optimized to measure the relative ADO production based on competitive AMP blockade and presence of CD73+ cells. Day five patient-derived sarcoma spheroids were digested and split into triplicates in X-VIVO20 and 1% PS culture media with an excessive amount of AMP at 0.4mM (Sigma-Aldrich) incubated for 30 minutes.
After 1500 RPM was applied for three minutes, 25 μL supernatant were removed and mixed with 25 μL of 200 μM ATP (Sigma-Aldrich) in the same media. 25 μL of this mixture was added to a white opaque OptiPlate (PerkinElmer) containing 25 μL Cell-Titer Glo reagent (Promega, US). Relative luminescence unit (RLU) can be read on SPARK 10M plate reader with an integration time of 100ms. […]

`CC1=C(C(=O)OC(C)C)C(c2ccco2)n2c(nc3ccccc32)N1` (stereo not shown) [ISAM-140, isopropyl 4-(furan-2-yl)−2-methyl-1,4-dihydrobenzo[4 5] imidazo[1,2 a]pyrimidine-3-carboxylate]: in the data set with healthy donor PBMCs, the “Toxicity / cell viability” value is “non-toxic and even improved cell viability”.

Turning to `CC1=C(C(=O)OC(C)C)C(c2ccco2)n2c(nc3ccccc32)N1Cc1ccccc1F` (stereo not shown) [ISAM-R56A], the Ki was > 1000 nM on human A2AAR and 1.5 nM on human A2BAR. Also, the “Rescue of killing in sarcoma TILs against autologous tumor cells” value in data set [1] is “also rescued killing”.

A word on the Ki: it is the equilibrium dissociation constant of an inhibitor or competing ligand from its target.
